From US6514981B1, “Methods of modulating tyrosine protein kinase function with indolinone compounds” (Sugen, Inc., priority 1998, dated 2003)

Key:
[1] = target: T1, chimeric receptor containing the EGFR extracellular domain and intracellular HER2 kinase domain (Homo sapiens, UniProt P04626); experiment: EGF receptor-HER2 phosphorylation assay in whole EGFR-NIH3T3 cells (ELISA); type: cell-based; details: NIH3T3 cells with chimeric receptor, EGF stimulation
T1 construct: P00533 (Epidermal growth factor receptor)
T1 sequence (P04626 720-987 limits assumed, change not shown): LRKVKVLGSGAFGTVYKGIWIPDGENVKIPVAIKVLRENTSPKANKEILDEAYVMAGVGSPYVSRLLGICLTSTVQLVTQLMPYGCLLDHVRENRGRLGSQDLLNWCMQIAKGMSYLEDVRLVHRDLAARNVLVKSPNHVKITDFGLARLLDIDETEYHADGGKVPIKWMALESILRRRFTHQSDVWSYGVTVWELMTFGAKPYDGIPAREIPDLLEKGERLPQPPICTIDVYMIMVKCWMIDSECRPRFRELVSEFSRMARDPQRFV
Method: HER2 kinase activity in whole EGFR-NIH3T3 cells was measured as described below. 1. Coat ELISA plates (Corning, 96 well, Cat. #25805-96) with 05-101 antibody at 0.5 µg per well in PBS, 100 μL final volume/well, and store overnight at 4° C. Coated plates are good for up to 10 days when stored at 4° C. 1. An NIH3T3 cell line overexpressing a chimeric receptor containing the EGFR extracellular domain and intracellular HER2 kinase domain can be used for this assay. 3. Resuspend cells in seeding medium (DMEM, 0.5% bovine serum), and count the cells using trypan blue. Viability above 90% is acceptable. Seed cells in DMEM medium (0.5% bovine serum) at a density of 10,000 cells per well, 100 μL per well, in a 96 well microtiter plate. Incubate seeded cells in 5% CO2 at 37° C. for about 40 hours. 1. Check seeded cells for contamination using an inverted microscope. […] The maximum phosphotyrosine signal is determined by subtracting the value of the negative controls from the positive controls. The percent inbibitation of phosphotyrosine content for extract-containing wells is then calculated, after subtraction of the negative controls. The IC50 values measured in the EGF receptor-HER2 phosphorylation assay for the compound of formula VI are depicted in Table 6: […]

Insulin Receptor = target: T2, Insulin Receptor (Homo sapiens, UniProt P06213); experiment: Insulin receptor phosphorylation assay in H25 cells (ELISA); type: cell-based; details: insulin stimulation
T2 construct: expressed in transfected cells; host or cells: H25 cells (NIH3T3, ATCC No. 1658)
T2 sequence (P06213 28-1382, species assumed): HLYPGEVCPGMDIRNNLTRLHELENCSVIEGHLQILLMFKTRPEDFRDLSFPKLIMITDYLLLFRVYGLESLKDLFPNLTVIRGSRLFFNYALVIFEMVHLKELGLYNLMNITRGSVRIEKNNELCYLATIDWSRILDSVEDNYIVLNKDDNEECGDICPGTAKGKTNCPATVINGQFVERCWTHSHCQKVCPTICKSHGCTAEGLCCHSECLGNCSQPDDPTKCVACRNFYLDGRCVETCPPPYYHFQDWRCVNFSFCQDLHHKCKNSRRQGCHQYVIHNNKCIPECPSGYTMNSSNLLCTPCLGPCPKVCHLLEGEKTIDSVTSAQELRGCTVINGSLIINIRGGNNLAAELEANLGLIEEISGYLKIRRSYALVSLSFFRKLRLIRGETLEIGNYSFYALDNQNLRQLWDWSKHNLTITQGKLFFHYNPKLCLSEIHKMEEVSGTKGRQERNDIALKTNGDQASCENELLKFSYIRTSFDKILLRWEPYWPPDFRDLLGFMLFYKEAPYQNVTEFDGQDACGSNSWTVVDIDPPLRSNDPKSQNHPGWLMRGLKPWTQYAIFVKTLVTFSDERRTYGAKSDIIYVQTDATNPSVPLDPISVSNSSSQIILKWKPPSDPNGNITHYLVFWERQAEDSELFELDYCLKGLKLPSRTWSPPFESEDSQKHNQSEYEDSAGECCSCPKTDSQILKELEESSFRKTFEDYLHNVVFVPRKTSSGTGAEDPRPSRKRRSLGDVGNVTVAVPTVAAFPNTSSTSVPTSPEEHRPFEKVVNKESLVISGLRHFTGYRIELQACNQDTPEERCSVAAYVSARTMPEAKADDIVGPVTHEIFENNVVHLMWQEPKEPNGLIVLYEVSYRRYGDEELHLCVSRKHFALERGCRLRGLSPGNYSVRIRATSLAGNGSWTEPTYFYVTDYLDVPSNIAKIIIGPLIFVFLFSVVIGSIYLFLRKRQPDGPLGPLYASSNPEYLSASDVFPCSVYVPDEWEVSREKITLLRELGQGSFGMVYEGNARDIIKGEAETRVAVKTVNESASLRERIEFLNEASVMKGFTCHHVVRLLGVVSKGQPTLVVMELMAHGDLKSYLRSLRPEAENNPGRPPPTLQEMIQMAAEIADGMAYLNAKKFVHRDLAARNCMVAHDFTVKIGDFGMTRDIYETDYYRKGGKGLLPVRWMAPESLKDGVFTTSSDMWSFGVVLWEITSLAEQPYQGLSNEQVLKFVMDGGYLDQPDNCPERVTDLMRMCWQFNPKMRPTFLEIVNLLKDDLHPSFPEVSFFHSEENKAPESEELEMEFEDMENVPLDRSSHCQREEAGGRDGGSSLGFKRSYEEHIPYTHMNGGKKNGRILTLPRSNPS
Method: The following materials and reagents were used to measure phophotyrosine levels on the insulin receptor (indicating insulin receptor tyrosine kinase activity):
1. The preferred cell line was an NIH3T3 cell line (ATCC No. 1658) which overexpresses Insulin Receptor (H25 cells);
2. Resuspend the cells in fresh DMEM+10% FBS+2mM L-Glutamine, and transfer to 96-well tissue culture plate (Corning, 25806-96) at 20,000 cells/well (100 μL/well). The cells are then incubated for 1 day. Following such incubation, 0.01% serum medium (90/μL) replaces the old media and the cells incubate in 5% CO2 and 37° C. overnight.
1. Coat the ELISA plate (Corning 25805-96) with Anti-IR Antibody at 0.5 μg/well in 100 μL PBS at least 2 hours.
C. Assay Procedures 1. The drugs are tested in serum-free condition. 2. Dilute drug stock (in 100% DMSO) 1:10 with DMEM in 96-well poly-propylene plate, and transfer 10 μL/well of this solution to the cells to achieve final drug dilution 1:100, and final DMSO concentration of 1.0%. Incubate the cells in 5% CO2 at 37° C. for 2 hours.
4. After drug incubation for two hours, transfer 10 μL/well of 1 μM insulin in PBS to the cells (Final concentration=100 nM), and incubate at 5% CO2 at 37° C. for 10 minutes.
5. […]
The IC50 values measured in the insulin receptor phosphorylation assay for the compound of formula VI are depicted in Table 7: […]

Compound: Cc1cc(/C=C2/C(=O)Nc3ccccc32)c(C)c2c1[nH]c1ccccc12 [VI]
- IC50 [1]: 8.72 µM
- IC50 (Insulin Receptor): 21.9 µM
